Experimental data as given in patent publication US20140332384A1, “BIOMARKERS RELATED WITH A SUPRA-N[…] STATE OF SELENIUM AND DIAGNOSIS METHOD IN WHICH SAID […] IDENTIFIED” (UNIVERSIDAD DE SANTIAGO DE CHILE, priority 2011, published 2014).
Where “and” joins values, the source holds several entries; their conditions need not be identical. Equal values may be shown once.

Experiments:
[1] = Growth of rats based on their body weight; settings: 10 weeks; for Final body weight: in g (unit assumed)
Procedure: As illustrated in the various embodiments and examples provided herein, the protein pattern was obtained using blood plasma from Wistar rats, bred in three groups of 8 rats, 21 days of age (4 females and 4 males) each. […] The animals had free access to deionized water and received the respective diet ad libitum. […]
The animals were kept in stainless steel cages at a controlled temperature equal to 20° C., using 12 hours day/night cycles. After the experimental period (10 weeks), blood samples were collected from each animal by cardiac punction, using standard protocols in heparin tubes. The tubes were inverted 10 times, and immediately placed in an ice bath. The tubes were centrifuged at 1300 RCF at 4° C. during 10 minutes. The plasma was separated from the solids. The supernatant was transferred to a fresh centrifuge tube and was centrifuged at 2400 RCF at 4° C. for 15 minutes. Finally, plasma samples were stored at −80° C. until they were analysed.
The growth of rats for each group was controlled.

[2] = system: blood plasma proteins of basic isoelectric point (bands R-2 to R-15); assay: Protein pattern of blood plasma proteins of basic isoelectric point (SDS-PAGE, densitometry) in rats fed supplemented diets; assay type: in vivo, Wistar rats
Procedure: The plasma was separated from the solids.
For the preparation of the pattern used, individual plasma samples were analyzed by SDS electrophoresis in polyacrylamide gel according to standard protocols. Prior to electrophoretic analysis, plasma samples were fractioned by “batch” adsorption using an ion exchange resin at pH 7.5. The adsorbed fraction was recovered and analyzed by SDS polyacrylamide gel.
A calibration curve was prepared loading five solutions of different concentrations (0, 0.4, 0.6, 0.8, and 1 mg/ml) [XAOG1]·[A2] of bovine serum albumin (as protein standard) in a polyacrylamide gel, and performing SDS-PAGE analysis under the same conditions and with the same protocol as used to analyse the plasma samples. In each lane a single major band was detected, and between the each lane different band intensity was observed due to the different concentration of the protein loaded (FIGS. 2-5). The optical density of each band was determined, as the protein concentration was known in each solution loaded in the different lanes, a linear equation was drawn which correlates the concentration with the intensity of the bands.
The concentration of protein was quantified in each band via optical densitometry and subsequent interpolation in the calibration curve. The concentration average and standard deviation for each band was calculated, considering the 8 samples of each group (controls and experimental). A comparison was made using the Student statistical t-test with a confidence interval 95% to detect significant differences in each band between the experimental and control groups.
The reference pattern for protein corresponds to the set of plasma proteins of basic isoelectric point obtained and separated by the following methodology.
Stage A: Chromatographic Fractionation of Plasma Proteins Basic Isoelectric Point.
1. Resuspend the cationic exchange resin, carefully turning the package containing the resin. When total homogenization is achieved, a certain volume of suspension is taken, between 50 and 500 μL, preferably between 50 and 200 μL, more preferably 100 μL.
2. Mix in a microcentrifuge tube around 50 to 500 μL, preferably between 50 and 200 μL, more preferably 100 μL of plasma with a 1:9 proportional amount of buffer pH 7.5, until a ionic strength equal to 0.1M, is attained, this is if you take 100 μL of plasma, 900 μL buffer must be added to achieve a 1:10 dilution, and obtain a plasma protein solution with an ionic strength equivalent to 0.09 to 0.1M of NaCl.
3. To prepare the cationic exchange resin, it is necessary to decant the resin from the original suspension volume, discarding the supernatant and washing the resin by adding an amount equivalent to the discarded supernatant buffer pH 7.5 plus 0.1M NaCl, repeating the procedure 3 times.
The protein sample obtained from stage 2 is added and mixed gently homogenizing it for 30 minutes and the resin is separated from the supernatant, the supernatant is discarded and the resin is washed with the same volume of pH 7.5 buffer plus 0.1M NaCl, three times. The adsorbed proteins are eluted by adding a suitable volume, preferably between 40 and 80 μL, more preferably 50 µL of pH 7.5 buffer over 1M NaCl, homogenized, the resin is separated from the supernatant, and finally supernatant is recuperated, which corresponds to the fraction of plasma proteins with a basic isoelectric point.
Stage B: Electrophoretic separation of plasma proteins of a basic isoelectric point.
A 12% polyacrylamide gel is prepared, according to standard protocols. A 20 μl of the sample obtained in item 3 and 5 μL of loading buffer (standard composition for SDS analysis) is subject to denaturation by heat. The denatured mixture is loaded into a lane and the electrophoretic run is performed, for a total of 160 Vh. The electrophoresis system is disassembled and the gel is recovered. […]

[3] = system: blood plasma proteins of basic isoelectric point (bands R-2 to R-15); assay: Protein pattern of blood plasma of an individual treated with dietary supplement seleno methylselenocysteine (Example 2); assay type: in vivo
Excerpt: The samples must pass through the stages A and B as described in the preparation of the pattern.
Step C: Comparing the protein pattern of the reference.
It compares the SDS-PAGE gel of the sample collected and treated with the protein pattern characteristic of a supranutritional intake of a trace element, in this case, the organic form of selenium as provided in seleno-methyl-selenocysteine, and evaluating the presence of the same bands and its relative abundance in each of the bands.
A statistical analysis (t-Student with an interval of 95%) is performed to detect significant differences between the relative abundance of the corresponding protein bands between the sample and pattern.
A sample of plasma from an individual who has undergone treatment with a nutritional dietary supplement seleno methylselenocysteine. This plasma sample was subject to the methodology described above, and the following were the results.
For comparison, Student's t-test with a confidence interval of 95% confidence was used. […] The interpretation of the results, based on the methodology would be as follows.

[4] = SMSeC (1.9 μg) diet, females, average
[5] = SMSeC (1.9 μg) diet, females, individual rats
[6] = SMSeC (1.9 μg) diet, group average
[7] = SMSeC (1.9 μg) diet, males, average
[8] = SMSeC (1.9 μg) diet, males, individual rats
[9] = rat blood plasma, basic isoelectric point fraction, diet with 1.9 μg SMSeC per gram, 10 weeks, average ± standard deviation, [UA] in Tables 4, 5
[10] = rats fed 1.9 μg seleno-methyl-selenocysteine per g of diet, Student t-test, confidence interval 95%
[11] = Sodium Selenate (1.5 μg) diet, females, average
[12] = Sodium Selenate (1.5 μg) diet, females, individual rats
[13] = Sodium Selenate (1.5 μg) diet, group average
[14] = Sodium Selenate (1.5 μg) diet, males, average
[15] = Sodium Selenate (1.5 μg) diet, males, individual rats
[16] = Sodium Selenate (1.9 μg) diet, females, average
[17] = Sodium Selenate (1.9 μg) diet, females, individual rats
[18] = Sodium Selenate (1.9 μg) diet, group average
[19] = Sodium Selenate (1.9 μg) diet, males, average
[20] = Sodium Selenate (1.9 μg) diet, males, individual rats

C[Se]C[C@H](N)C(=O)O [SMSeC, seleno-methyl-selenocysteine]
Delta body weight [1, 4]: 168.3 | Final body weight [1, 4]: 216.7 | Delta body weight [1, 5]: 161.1 and 160.2 and 172.4 and 179.3 | Final body weight [1, 5]: 208.6 and 210.3 and 222.2 and 225.5 | Delta body weight [1, 6]: 211.5 | Final body weight [1, 6]: 260.4 | Delta body weight [1, 7]: 254.7 | Final body weight [1, 7]: 304 | Delta body weight [1, 8]: 245.1 and 256.8 and 275.8 and 241.0 | Final body weight [1, 8]: 296.5 and 308.7 and 322.6 and 287.9 | Relative abundance of band R-2 (H inhibitory factor complement) of the pattern [2, 9]: 28498 ± 3911.5 arbitrary units | Relative abundance of band R-3 (H inhibitory factor complement) of the pattern [2, 9]: 20594.0 ± 4569.2 arbitrary units | Relative abundance of band R-4 (CRA f isophorm plasminogen) of the pattern [2, 9]: 21804.3 ± 4211.0 arbitrary units | Relative abundance of band R-5 (LOC366747 Protein) of the pattern [2, 9]: 24582.7 ± 3620.9 arbitrary units | Relative abundance of band R-6 (4a component complement) of the pattern [2, 9]: 29751.3 ± 2974.0 arbitrary units | Relative abundance of band R-7 (Albumina) of the pattern [2, 9]: 37380.8 ± 2955.7 arbitrary units | Relative abundance of band R-8 (Da 1-24) of the pattern [2, 9]: 27224.3 ± 6466.9 arbitrary units | Relative abundance of band R-9 (2C chainCregion Ig Gamma) of the pattern [2, 9]: 40411.3 ± 5952.4 arbitrary units | Relative abundance of band R-10 (Precursor β-2-glicoprotein 1) of the pattern [2, 9]: 14366.6 ± 3087.2 arbitrary units | Relative abundance of band R-11 (2A Region C Ig Gamma chain) of the pattern [2, 9]: 14644.4 ± 1750.0 arbitrary units and 14064.4 ± 1750.0 arbitrary units | Relative abundance of band R-12 (4a component complement) of the pattern [2, 9]: 51973.0 ± 4308.2 arbitrary units | Relative abundance of band R-13 (Heavy chain H4 inter α inhibitor) of the pattern [2, 9]: 13414.1 ± 5568.9 arbitrary units | Relative abundance of band R-14 (Ig Kappa precursor) of the pattern [2, 9]: 40436.1 ± 2906.9 arbitrary units | Relative abundance of band R-15 (H apolipoprotein) of the pattern [2, 9]: 11309.5 ± 6939.5 arbitrary units | Concentration of protein in band R-10 compared with basal diet plus 0.15 μg sodium selenate per gram of diet [2, 10]: significantly higher | Concentration of protein in band R-11 compared with basal diet plus 0.15 μg sodium selenate per gram of diet [2, 10]: significantly higher | Concentration of protein in band R-12 compared with basal diet plus 0.15 μg sodium selenate per gram of diet [2, 10]: significantly higher | Concentration of protein in band R-13 compared with basal diet plus 0.15 μg sodium selenate per gram of diet [2, 10]: significantly higher | Concentration of protein in band R-15 compared with basal diet plus 0.15 μg sodium selenate per gram of diet [2, 10]: significantly higher | Concentration of protein in band R-3 compared with both control groups ([2]; rats fed 1.9 μg seleno-methyl-selenocysteine per gram of diet, Student t-test, confidence interval 95%): significantly higher | Relative abundance [UA] of the individual, band R-2 [3]: 29498.0 ± 3911.5 UA | Relative abundance [UA] of the individual, band R-3 [3]: 22594.0 ± 4569.2 UA | Relative abundance [UA] of the individual, band R-4 [3]: 21994.3 ± 4211.0 UA | Relative abundance [UA] of the individual, band R-5 [3]: 25682.7 ± 3620.9 UA | Relative abundance [UA] of the individual, band R-6 [3]: 30751.3 ± 2974.0 UA | Relative abundance [UA] of the individual, band R-7 [3]: 37560.8 ± 2955.7 UA | Relative abundance [UA] of the individual, band R-8 [3]: 28124.3 ± 6466.9 UA | Relative abundance [UA] of the individual, band R-9 [3]: 41211.3 ± 5952.4 UA | Relative abundance [UA] of the individual, band R-10 [3]: 14666.6 ± 3087.2 UA | Relative abundance [UA] of the individual, band R-11 [3]: 13964.4 ± 1750.0 UA | Relative abundance [UA] of the individual, band R-12 [3]: 52073.0 ± 4308.2 UA | Relative abundance [UA] of the individual, band R-13 [3]: 15414.1 ± 5568.9 UA | Relative abundance [UA] of the individual, band R-14 [3]: 41436.1 ± 2906.9 UA | Relative abundance [UA] of the individual, band R-15 [3]: 12009.5 ± 6939.5 UA

O=[Se](=O)(O)O [Sodium Selenate, sodium selenate]
Delta body weight [1, 11]: 151.1 | Final body weight [1, 11]: 199.5 | Delta body weight [1, 12]: 141.6 and 135.5 and 139.3 and 187.8 | Final body weight [1, 12]: 189.8 and 184.2 and 188.3 and 235.7 | Delta body weight [1, 13]: 207.8 | Final body weight [1, 13]: 256.7 | Delta body weight [1, 14]: 264.6 | Final body weight [1, 14]: 313.8 | Delta body weight [1, 15]: 266.6 and 275.8 and 271.2 and 244.9 | Final body weight [1, 15]: 316.8 and 326.3 and 318.5 and 293.5 | Delta body weight [1, 16]: 161.2 | Final body weight [1, 16]: 209.7 | Delta body weight [1, 17]: 180.4 and 161.3 and 145.1 and 158.1 | Final body weight [1, 17]: 228.6 and 210 and 194.1 and 206 | Delta body weight [1, 18]: 218.0 | Final body weight [1, 18]: 266.9 | Delta body weight [1, 19]: 274.8 | Final body weight [1, 19]: 324 | Delta body weight [1, 20]: 293.1 and 278.3 and 291.9 and 235.9 | Final body weight [1, 20]: 343.3 and 328.8 and 339.2 and 284.5
